From article PMC7178833, “Preparation, carbonic anhydrase enzyme inhibition and antioxidant activity of novel 7-amino-3,4-dihydroquinolin-2(1H)-one derivatives incorporating mono or dipeptide moiety” (Journal of Enzyme Inhibition and Medicinal Chemistry, 2020)

What was measured:
hCA I = hCA I (Homo sapiens, UniProt P00915); assay: stopped flow CO2 hydrase assay, hCA I; type: biochemical; settings: mean from three different assays
Description: (§1) An Applied Photophysics Stopped-Flow instrument has been used for assaying the CA catalysed CO2 hydration activity by using method of Khalifah[21]. Phenol red (at a concentration of 0.2 mM) has been used as indicator, working at the absorbance maximum of 557 nm, with 20 mM HEPES (pH 7.5) as buffer and 20 mM Na2SO4 (for maintaining constant the ionic strength), following the initial rates of the CA-catalysed CO2 hydration reaction for a period of 10–100 s. The CO2 concentrations ranged from 1.7 to 17 mM for the determination of the kinetic parameters and inhibition constants. […] The uncatalysed rates were determined in the same manner and subtracted from the total observed rates. Stock solutions of inhibitor (0.1 mM) were prepared in distilled–deionised water and dilutions up to 0.01 nM were done thereafter with the assay buffer. Inhibitor and enzyme solutions were pre-incubated together for 15 min at room temperature prior to assay, in order to allow for the formation of the E–I complex. The inhibition constants were obtained by non-linear least-square methods using PRISM (www.graphpad.com), and non-linear least squares methods, values representing the mean of at least three different determinations, as described earlier by us[22–27].

[1] = DPPH radical scavenging activity
Description: Antioxidant activity was determined based on the ability of the antioxidants to act as radical scavengers towards the stable free radical, 1,1-diphenyl-2-picrylhydrazyl (DPPH). As detailed by Yang et al[28], 1 ml of antioxidant solution (solubilised in ethanol) was added to 3 ml of a 0.1 mM ethanolic solution of DPPH. After 30 min at ambient temperature in darkness, absorbance readings were taken at 517 nm. Inhibition (%) was calculated using the equation [1 – (As−Ao)/Ab]×100 where As was the absorbance reading for samples containing antioxidant, Ao was the absorbance of the antioxidant in pure methanol and Ab corresponded to the absorbance of the DPPH solution.
The antioxidant activity of the compounds was determined based on the ability of the antioxidants to act as radical scavengers towards the stable free radical, 1,1-diphenyl-2-picrylhydrazyl (DPPH)[28].

hCA IX = hCA IX (Homo sapiens, UniProt Q16790); assay: stopped flow CO2 hydrase assay, hCA IX; type: biochemical; settings: mean from three different assays
Description: as §1

hCA XII = hCA XII (Homo sapiens, UniProt O43570); assay: stopped flow CO2 hydrase assay, hCA XII; type: biochemical; settings: mean from three different assays
Chain of hCA XII (O43570 25-354): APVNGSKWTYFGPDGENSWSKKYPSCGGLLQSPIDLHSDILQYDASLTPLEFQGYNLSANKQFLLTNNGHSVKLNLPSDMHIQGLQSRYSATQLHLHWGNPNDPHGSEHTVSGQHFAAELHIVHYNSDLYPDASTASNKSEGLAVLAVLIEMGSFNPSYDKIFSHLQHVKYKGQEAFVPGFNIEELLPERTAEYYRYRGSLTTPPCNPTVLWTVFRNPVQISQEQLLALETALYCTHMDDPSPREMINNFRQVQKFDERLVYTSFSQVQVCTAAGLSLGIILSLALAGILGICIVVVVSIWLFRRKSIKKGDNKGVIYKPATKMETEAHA
Description: as §1

hCA II = hCA II (Homo sapiens, UniProt P00918); assay: stopped flow CO2 hydrase assay, hCA II; type: biochemical; settings: mean from three different assays, read-out: Ki hCAII
Description: as §1

Chain of hCA I (P00915 whole entry): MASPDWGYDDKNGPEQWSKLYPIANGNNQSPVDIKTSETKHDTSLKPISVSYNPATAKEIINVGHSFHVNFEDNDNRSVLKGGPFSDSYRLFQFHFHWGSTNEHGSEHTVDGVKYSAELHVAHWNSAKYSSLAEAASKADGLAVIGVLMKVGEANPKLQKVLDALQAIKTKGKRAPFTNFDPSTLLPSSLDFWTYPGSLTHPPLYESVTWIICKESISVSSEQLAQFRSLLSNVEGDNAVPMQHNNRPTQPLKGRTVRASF

Ki (hCA I)	melting point	Ki (hCA IX)	Ki (hCA XII)	Ki (hCA II)	Compound	Antioxidant activity, % ([1]; 12.5 μg/ml)	Antioxidant activity, % ([1]; 25 μg/ml)	Antioxidant activity, % ([1]; 37.5 μg/ml)	Antioxidant activity, % ([1]; 62.5 μg/ml)	Antioxidant activity, % ([1]; 125 μg/ml)
> 100 µM	137 to 138 °C	37.7 µM	7 µM	> 100 µM	CSCC[C@H](NC(=O)OCc1ccccc1)C(=O)Nc1ccc2c(c1)NC(=O)CC2 (stereo in doubt) [Compound 5, Benzyl (S)-(4-(methylthio)-1-oxo-1-((2-oxo-1,2,3,4-tetrahydroquinolin-7-yl)amino)butan-2-yl)carbamate]	2.8%	1.9%	1.9%	2.8%	2.8%
> 100 µM	180 to 181 °C	41.2 µM	3.8 µM	> 100 µM	CC(C)(C)OC(=O)N[C@H](Cc1ccccc1)C(=O)Nc1ccc2c(c1)NC(=O)CC2 (stereo in doubt) [Compound 2, Tert-butyl (R)-(1-oxo-1-((2-oxo-1,2,3,4-tetrahydroquinolin-7-yl)amino)-3-phenylpropan-2-yl)carbamate]	3.1%	2.2%	0.0%	0.9%	0.6%
–	–	–	–	–	Cc1c(C)c2c(c(C)c1O)CC[C@@](C)(CCC[C@H](C)CCC[C@H](C)CCCC(C)C)O2 [α-Toc., α-tocopherol, reference compound]	62.9%	63.4%	68.4%	72.8%	74.0%
> 100 µM	150 to 151 °C	65.4 µM	5.7 µM	> 100 µM	O=C1CCc2ccc(NC(=O)[C@H](CSc3ccccc3)NC(=O)OCc3ccccc3)cc2N1 (stereo in doubt) [Compound 4, Benzyl (R)-(1-oxo-1-((2-oxo-1,2,3,4-tetrahydroquinolin-7-yl)amino)-3-(phenylthio)propan-2-yl)carbamate]	2.5%	1.6%	0.9%	2.2%	1.6%
> 100 µM	197 to 198 °C	86.8 µM	2 µM	> 100 µM	C[C@@H](NC(=O)OC(C)(C)C)C(=O)Nc1ccc2c(c1)NC(=O)CC2 (stereo in doubt) [Compound 1, Tert-butyl (R)-(1-oxo-1-((2-oxo-1,2,3,4-tetrahydroquinolin-7-yl)amino)propan-2-yl)carbamate]	3.8%	2.2%	2.5%	1.6%	0.6%
> 100 µM	171 to 172 °C	42.6 µM	8.5 µM	> 100 µM	CSCC[C@H](NC(=O)OC(C)(C)C)C(=O)Nc1ccc2c(c1)NC(=O)CC2 (stereo in doubt) [Compound 3, Tert-butyl (S)-(4-(methylthio)-1-oxo-1-((2-oxo-1,2,3,4-tetrahydroquinolin-7-yl)amino)butan-2-yl)carbamate]	0.9%	0.3%	–	–	–
–	–	–	–	–	COc1ccc(O)c(C(C)(C)C)c1 [BHA, reference compound]	61.1%	63.0%	67.5%	71.0%	72.4%

Compound	Ki (hCA I)	melting point	Ki (hCA IX)	Ki (hCA XII)	Ki (hCA II)	Antioxidant activity, % ([1]; 12.5 μg/ml)	Antioxidant activity, % ([1]; 25 μg/ml)	Antioxidant activity, % ([1]; 37.5 μg/ml)	Antioxidant activity, % ([1]; 62.5 μg/ml)	Antioxidant activity, % ([1]; 125 μg/ml)
Benzyl ((R)-1-oxo-1-(((S)-1-oxo-1-((2-oxo-1,2,3,4-tetrahydroquinolin-6-yl)amino)-3-phenylpropan-2-yl)amino)-3-phenylpropan-2-yl)carbamate [Compound 6]	> 100 µM	–	47.6 µM	8.6 µM	> 100 µM	1.9%	6.3%	8.8%	16.4%	–
